± gives the expanded uncertainty stated by the source.
Tests used:
[1] = Liquid; for mass density: 293.15 K, 101.33 kPa, Vibrating tube method; for Normal boiling temperature: mercury-in-glass thermometers
[2] = refractive index (Na D-line) (dimensionless); details: 293.15 K; 101.33 kPa; Liquid; Standard Abbe refractometry

SMILES | mass density [1] [kg/m3] | Normal boiling temperature [1] [°C] | refractive index [2]
CN(C)C=O [dimethylformamide] | 942.6 ± 0.3 | 153.06 ± 0.2 | 1.4328 ± 0.0007
CCC(C)CO (centres undefined) [2-methyl-1-butanol] | 817.6 ± 0.2 | 128.12 ± 0.2 | 1.4096 ± 0.0007
CCC(C)COC(C)=O (centres undefined) [2-methylbutyl ethanoate] | 873.5 ± 0.3 | 138.23 ± 0.2 | 1.4034 ± 0.0007

Reference: the NIST ThermoML archive (doi:10.1021/je3012925)
